Experimental findings from ChEMBL document CHEMBL1155656, “Thirteen novel cycloartane-type triterpenes from Combretum quadrangulare” (2000) are described below.

Molecules are shown by their SMILES. ≈ marks a conversion by molar mass, not a printed value.

The test can be described thus: Cytotoxicity against mouse 26-L5 cells. The test is classed as functional. The following applies: read-out: ED50 (the source's name).
With `C=C(C)[C@@H](O)CC[C@@H](CO)[C@H]1CC[C@@]2(C)[C@@H]3CC[C@H]4[C@](C)(C(=O)OC)[C@@H](O)C[C@H](O)[C@@]45C[C@@]35CC[C@]12C` [METHYL QUADRANGULARATE], the EC50 came to 29.4 µg/mL (≈ 56.7 µM). In the case of `C[C@H](CCC(=O)O)[C@H]1CC[C@@]2(C)[C@@H]3CC[C@H]4[C@](C)(C(=O)O)[C@@H](O)C[C@H](O)[C@@]45C[C@@]35CC[C@]12C` [NORQUADRANGULARIC ACID A] it was above 100 µg/mL; in that of `C=C(C)[C@H](O)CC[C@@H](C(=O)O)[C@H]1CC[C@@]2(C)[C@@H]3CC[C@H]4[C@](C)(C(=O)OC)[C@@H](O)C[C@H](O)[C@@]45C[C@@]35CC[C@]12C`, above 100 µg/mL; in that of `C[C@H](CC[C@@H](O)C(C)(C)O)[C@H]1CC[C@@]2(C)[C@@H]3CC[C@H]4[C@](C)(C(=O)O)[C@@H](O)C[C@H](O)[C@@]45C[C@@]35CC[C@]12C` [QUADRANGULARIC ACID L], above 100 µg/mL. As to `COC(C)(C)/C=C/C[C@@H](C)[C@H]1CC[C@@]2(C)[C@@H]3CC[C@H]4[C@](C)(C(=O)O)[C@@H](O)C[C@H](O)[C@@]45C[C@@]35CC[C@]12C` [QUADRANGULARIC ACID J], the EC50 was found to be 86.1 µg/mL (≈ 171 µM). As to `C=C(CC[C@@H](C)[C@H]1CC[C@@]2(C)[C@@H]3[C@@H](O)C[C@H]4[C@](C)(C(=O)O)[C@@H](O)C[C@H](O)[C@@]45C[C@@]35CC[C@]12C)C(C)C`, the EC50 is 37.3 µg/mL (≈ 74.2 µM). In the case of `C[C@H](CC[C@H](O)C(C)(C)O)[C@H]1CC[C@@]2(C)[C@@H]3CC[C@H]4[C@](C)(C(=O)O)[C@@H](O)C[C@H](O)[C@@]45C[C@@]35CC[C@]12C` it was above 100 µg/mL. In the case of `C[C@H](C/C=C\C(C)(C)O)[C@H]1CC[C@@]2(C)[C@@H]3CC[C@H]4[C@](C)(C(=O)O)[C@@H](O)C[C@H](O)[C@@]45C[C@@]35CC[C@]12C` [QUADRANGULARIC ACID K] it was 82.6 µg/mL (≈ 169 µM). The same measure for `COC(=O)[C@]1(C)[C@@H](O)C[C@H](O)[C@]23C[C@]24CC[C@]2(C)[C@@H]([C@@H](C/C=C/C(C)(C)OO)C(=O)O)CC[C@@]2(C)[C@@H]4CC[C@@H]13` [QUADRANGULARIC ACID F]: above 100 µg/mL; for `C=C(C)C(=O)CC[C@@H](C(=O)O)[C@H]1CC[C@@]2(C)[C@@H]3CC[C@H]4[C@](C)(C(=O)O)[C@@H](O)C[C@H](O)[C@@]45C[C@@]35CC[C@]12C` [QUADRANGULARIC ACID H]: above 100 µg/mL; for `C=C(C)[C@@H](O)CC[C@@H](C(=O)O)[C@H]1CC[C@@]2(C)[C@@H]3CC[C@H]4[C@](C)(C(=O)OC)[C@@H](O)C[C@H](O)[C@@]45C[C@@]35CC[C@]12C` [QUADRANGULARIC ACID G]: above 100 µg/mL.
